Measurements as given in PubChem BioAssay AID488950 (Broad Institute, 2010).
“And” between values parts separate entries of the source, which are not always exact repeats. Equal values may be shown once. Records with an inconclusive call do not appear. The source made the active and inactive calls.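 Rule for the calls: active = fitted half-maximal dose for growth inhibition no higher than ten times the top tested dose; inconclusive = flat curve with 30 to 70% inhibition, or poor fit; inactive = the rest.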

Tested on: not listed separately
Assay: growth inhibition of resistant C. albicans, dose response, CaCi-8 strain, fluconazole, dry powder, set 4 (AID 488950)
Details: C. albicans CaCi-8 + fluconazole, Alamar Blue growth, 48 h; at 26 µM (top of the series)

Structure (SMILES)	activity change, negative = inhibition
O=C(c1ccc(Cl)cc1)N1CCN(c2cc(C(F)(F)F)nc3ccccc23)CC1	-54.5% (inactive)
O=C(c1ccc(Cl)cc1)N1CCN(c2ccncc2)CC1	-2.65% (inactive)
CC(C)C(=O)N1CCN(c2ccnc3cc(Cl)ccc23)CC1	-25.6% (inactive)
COc1cccnc1N1CCN(C(=O)c2ccc(Cl)cc2)CC1	-25% (inactive)
O=C(c1ccc(Cl)cc1)N1CCNCC1	4.63% (inactive)
COc1cccc2c(N3CCN(C(=O)c4ccc(Cl)cc4)CC3)cc(C)nc12	-22.9% (inactive)
Clc1ccc2c(N3CCNCC3)ccnc2c1	7.46% (inactive)
O=S(=O)(c1ccc(Cl)cc1)N1CCN(c2ccnc3cc(Cl)ccc23)CC1	-2.18% (inactive)
Cc1cc(N2CCN(C(=O)c3ccc(Cl)cc3)CC2)c2ccccc2n1	6.54% (inactive)

Tested on: C. albicans CaCi-8 + fluconazole, Alamar Blue growth, 48 h
Assay: as above
Details: not given

Structure (SMILES)	AC50
O=C(c1ccc(Cl)cc1)N1CCN(c2ccnc3cc(Cl)ccc23)CC1	0.179 µM and 0.6 µM
O=C(c1ccc(Cl)cc1)N1CCN(c2ccccn2)CC1	9.14 µM and 13.8 µM and 19.9 µM
